We go through 13 molecules from patent publication US20250109132A1, “COMPOUNDS AND METHODS FOR TREATING FRIEDREICH'S ATAXIA” (Design Therapeutics, Inc., priority 2022, published 2025).

Some results are limits rather than exact numbers.

In the test the test system is human FXN. The test can be described thus: EC50 Assay: FXN mRNA expression by qRT-PCR in GM15850 cells. In kind it is cell-based. As to conditions: GM15850 cell suspension, 48 hrs incubation, hFXN expression normalized to hGAPDH, 5-point 3-fold dose response, read-out: EC50 WT (nM, 48 hr). The protocol:
Cell culture: Cells were cultured in RPMI1640 medium+15% FBS. Cells were maintained at a density between […]. Cells were centrifuged, resuspended in fresh medium, counted and plated at 150,000 cells per well in 100 μL in a non-coated, flat bottom tissue culture plate.
Compound treatment: 10 mM stock solution of FA GeneTAC was diluted 1:10 in DMSO followed by a 1:100 dilution in growth medium. Working solution was then further diluted to 1OX desired final concentration of 150 nM. Compound was then diluted at a 1:3 ratio into growth medium containing 0.01% DMSO. 5-point, 3-fold dose response curve was generated. 11 μL of 10× compound was added to wells containing 100 μL cell suspension of GM15850. 11 μL growth medium containing 0.01% DMSO was added to all wells not treated with FA GeneTAC. Cells were allowed to incubate for 48 hrs prior to cell lysis using guanidine isothiocyanate solution.
RNA isolation: Total RNA was isolated and purified in 384-well column filter plates using chaotropic salt.
qRT-PCR: qRT-PCR reactions were assembled using AgPath-ID reagents (Thermo Fisher) using 6 μL mastermix and 4 μL RNA. qRT-PCR TaqMan primer probe sets against human FXN (Assay ID Hs01075496 ml) and human GAPDH (Assay ID Hs00266705_g1) were used to measure the intended targets. qRT-PCR was run on the ThermoFisher QuantStudio 6 PRO instrument using the manufacturer's recommended cycling conditions.
Data analysis: qPCR data was analyzed using Thermo Fisher Design and Analysis software. Data was exported to Excel and hFXN expression was normalized to hGAPDH expression
A<100 nM; B is 100 nM to 500 nM; C>500 nM.
Background: Real-time PCR tracks product formation cycle by cycle.
Regarding `Cc1cc(F)cc(C)c1Oc1ccc(C(C)(C)O)cc1-c1cn(C)c(=O)c2[nH]c(C(=O)NCc3cn(CCOCCOCCOCCOCCOCCOCCOCCOCCNC(=O)CCNC(=O)c4nc(NC(=O)CCNC(=O)c5cc(NC(=O)c6nc(NC(=O)CCNC(=O)c7cc(NC(=O)c8nccn8C)cn7C)cn6C)cn5C)cn4C)nn3)cc12` [Compound 5], the EC50 is below 100 nM.
Under `Cc1cc(F)cc(C)c1Oc1ccc(C(C)(C)O)cc1-c1cn(C)c(=O)c2[nH]c(C(=O)Nc3ccc(OCCOCCOCCOCCOCCOCCOCCOCCOCCNC(=O)c4nc(NC(=O)CCNC(=O)c5cc(NC(=O)c6nc(NC(=O)CCNC(=O)c7cc(NC(=O)c8nccn8C)cn7C)cn6C)cn5C)cn4C)cc3)cc12` [Compound 7] stands below 100 nM.
For `Cc1cc(F)cc(C)c1Oc1ccc(C(C)(C)O)cc1-c1cn(C)c(=O)c2[nH]c(C(=O)Nc3ccc(OCCOCCOCCOCCOCCOCCNC(=O)CCNC(=O)c4nc(NC(=O)CCNC(=O)c5cc(NC(=O)c6nc(NC(=O)CCNC(=O)c7cc(NC(=O)c8nccn8C)cn7C)cn6C)cn5C)cn4C)cc3)cc12` [Compound 11], the EC50 was below 100 nM.
For the molecule `CCS(=O)(=O)c1ccc(Oc2c(C)cc(F)cc2C)c(-c2cn(C)c(=O)c3[nH]c(C(=O)Nc4ccc(OCCOCCOCCOCCOCCOCCOCCOCCOCCNC(=O)CCNC(=O)c5nc(NC(=O)CCNC(=O)c6cc(NC(=O)c7nc(NC(=O)CCNC(=O)c8cc(NC(=O)c9nccn9C)cn8C)cn7C)cn6C)cn5C)cc4)cc23)c1` [Compound 3], the EC50 was below 100 nM.
`Cc1cc(F)cc(C)c1Oc1ccc(C(C)(C)O)cc1-c1cn(C)c(=O)c2[nH]c(C(=O)NCc3ccc(OCCOCCOCCOCCOCCOCCOCCOCCOCCNC(=O)CCNC(=O)c4nc(NC(=O)CCNC(=O)c5cc(NC(=O)c6nc(NC(=O)CCNC(=O)c7cc(NC(=O)c8nccn8C)cn7C)cn6C)cn5C)cn4C)cc3)cc12` [Compound 6]: the EC50 is below 100 nM.
Consider `Cc1cc(F)cc(C)c1Oc1ccc(C(C)(C)O)cc1-c1cn(C)c(=O)c2[nH]c(C(=O)Nc3ccc(OCCOCCOCCOCCOCCOCCOCCOCCOCCNC(=O)CCNC(=O)CCNC(=O)c4nc(NC(=O)CCNC(=O)c5cc(NC(=O)c6nc(NC(=O)CCNC(=O)c7cc(NC(=O)c8nccn8C)cn7C)cn6C)cn5C)cn4C)cc3)cc12` [Compound 10], for which the EC50 is below 100 nM.
Under `Cc1cc(F)cc(C)c1Oc1ccc(C(C)(C)O)cc1-c1cn(C)c(=O)c2[nH]c(C(=O)Nc3ccc(OCCOCCOCCOCCOCCOCCOCCOCCOCCNC(=O)CCNC(=O)c4nc(NC(=O)CCNC(=O)c5cc(NC(=O)c6nc(NC(=O)CCNC(=O)c7cc(NC(=O)c8nccn8C)cn7C)cn6C)cn5C)cn4C)c(O)c3)cc12` [Compound 12] stands below 100 nM.
Turning to `COCCOCCOCCOCCOCCOCCOc1cc(NC(=O)c2cc3c(-c4cc(C(C)(C)O)ccc4Oc4c(C)cc(F)cc4C)cn(C)c(=O)c3[nH]2)ccc1OCCOCCOCCOCCOCCOCCOCCOCCOCCNC(=O)CCNC(=O)c1nc(NC(=O)CCNC(=O)c2cc(NC(=O)c3nc(NC(=O)CCNC(=O)c4cc(NC(=O)c5nccn5C)cn4C)cn3C)cn2C)cn1C` [Compound 4], the EC50 is below 100 nM.
As for `COC(C)(C)c1ccc(Oc2c(C)cc(F)cc2C)c(-c2cn(C)c(=O)c3[nH]c(C(=O)Nc4ccc(OCCOCCOCCOCCOCCOCCOCCOCCOCCNC(=O)CCNC(=O)c5nc(NC(=O)CCNC(=O)c6cc(NC(=O)c7nc(NC(=O)CCNC(=O)c8cc(NC(=O)c9nccn9C)cn8C)cn7C)cn6C)cn5C)cc4)cc23)c1` [Compound 1], the 50% effective concentration (EC50) is below 100 nM.
In the case of `Cc1cc(F)cc(C)c1Oc1ccc(S(C)(=O)=O)cc1-c1cn(C)c(=O)c2[nH]c(C(=O)Nc3ccc(OCCOCCOCCOCCOCCOCCOCCOCCOCCNC(=O)CCNC(=O)c4nc(NC(=O)CCNC(=O)c5cc(NC(=O)c6nc(NC(=O)CCNC(=O)c7cc(NC(=O)c8nccn8C)cn7C)cn6C)cn5C)cn4C)cc3)cc12` [Compound 2], the EC50 is below 100 nM.
On to `Cc1cc(F)cc(C)c1Oc1ccc(C(C)(C)O)cc1-c1cn(C)c(=O)c2[nH]c(C(=O)Nc3ccc(OCCOCCOCCOCCOCCOCCOCCOCCOCCNC(=O)CCNC(=O)c4nc(NC(=O)CCNC(=O)c5cc(NC(=O)c6nc(NC(=O)CCNC(=O)c7cc(NC(=O)c8nccn8C)cn7C)cn6C)cn5C)cn4C)cc3)cc12` [Compound 15], for which the EC50 was below 100 nM.
On to `Cc1cc(F)cc(C)c1Oc1ccc(C(C)(C)O)cc1-c1cn(C)c(=O)c2[nH]c(C(=O)Nc3ccc(OCCOCCOCCOCCOCCOCCOCCOCCOCCNC(=O)c4nc(NC(=O)CCNC(=O)c5cc(NC(=O)c6nc(NC(=O)CCNC(=O)c7cc(NC(=O)c8nccn8C)c[nH]7)cn6C)c[nH]5)cn4C)cc3)cc12` [Compound 9], for which the EC50 was below 100 nM.
The figure for `CCNC(=O)c1cc2c(-c3cc(C(C)(C)O)ccc3Oc3c(C)cc(OCCOCCOCCOCCOCCOCCOCCOCCOCCNC(=O)CCNC(=O)c4nc(NC(=O)CCNC(=O)c5cc(NC(=O)c6nc(NC(=O)CCNC(=O)c7cc(NC(=O)c8nccn8C)cn7C)cn6C)cn5C)cn4C)cc3C)cn(C)c(=O)c2[nH]1` [Compound 17] is below 100 nM.

As usually defined, the EC50 is the midpoint of the concentration-response curve.
